The results in this text go back to US20050288347A1, “Certain triazole-based compounds, compositions, and uses thereof” (priority 2004, published 2005).

Entries after “also recorded” stand apart in the source; their conditions may differ.

The assay has as its target protein kinase. Briefly: HTS ATP-utilizing enzyme assay, off-chip mobility-shift format (Caliper HTS 250). Type of assay: biochemical, human. To be noted: kinase(s) for which the compound exhibits protein kinase inhibitory activity; test compound 10 μM; active = greater than three-sigma from the mean activity of inactive compounds. A digest of the protocol:
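Single-point screen at 10 μM compound in HEPES pH 7.5 buffer with Triton X-100 and BSA, 2.5 h at 20–22 °C. Substrate-to-phosphopeptide ratio measured by off-chip microfluidic mobility shift; EDTA wells as 100% and DMSO wells as 0% control, hits called at three-sigma limits.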

As to `Cn1c(SCC(=O)c2ccc3c(c2)OCCO3)nnc1-c1ccc(S(=O)(=O)N2CCOCC2)cc1`, the Kinase result was “AURORA-A”.
For `O=C(CSc1nnc(-c2cccc(C(F)(F)F)c2)[nH]1)c1ccc2c(c1)OCCO2` the value was “AURORA-A; also recorded: GSK3-α; also recorded: FLT-3”; for `O=C(CSc1nnc(-c2ccc(O)cc2)n1CC1CCCO1)c1ccc2c(c1)OCCO2` (stereo not drawn), “GSK3-β and SGK1”.
For `Cn1c(SCC(=O)c2ccc3c(c2)OCCO3)nnc1-c1ccc(O)cc1` the value was “GSK3-β and GSK3-α and MSK1”; for `CCCn1c(SCC(=O)c2ccc3c(c2)OCCO3)nnc1-c1ccco1`, “DYRK2”; for `Cc1cccc(-c2nnc(SCC(=O)c3ccc4c(c3)OCCO4)[nH]2)c1`, “FLT-3; also recorded: GSK3-α; also recorded: AURORA-A”.
Take `Cc1nnc(SCC(=O)c2ccc3c(c2)OCCO3)[nH]1`: the Kinase entry was “GSK3-α; also recorded: GSK3-β; also recorded: DYRK2”.
For `CCn1c(SCC(=O)c2cc(OC)ccc2OC)nnc1C(C)C`, the Kinase result was “PDGFRR-α and FLT-3 and FYN”.
For `Cn1c(SCC(=O)c2ccc(O)c(O)c2)nnc1-c1ccccc1` the value was “MSK2 and FYN and HCK”.
`CCOc1ccc(Nc2nnc(SCC(=O)c3cc(C(C)(C)C)c(O)c(C(C)(C)C)c3)n2-c2ccc(OCC)cc2)cc1`: the Kinase result is “FYN”.
For `Cc1ccc(-n2c(CNc3cccc(Cl)c3)nnc2SCC(=O)c2ccc(Cl)cc2)cc1`, the Kinase result was “LYNA”.
For `O=C(CSc1nnc(-c2cc3ccccc3cc2O)n1Cc1ccco1)c1ccc(F)cc1` the value was “AURORA-A”; for `CCn1c(SCC(=O)Nc2cc(OC)c(OC)cc2C(=O)O)nnc1-c1ccc(O)cc1`, “AURORA-A”.
Consider `COCCn1c(SCC(=O)c2ccccc2)nnc1-c1ccc(OC)cc1`, for which the Kinase entry is given as “AKT1”.
On to `O=C(CSc1nnc(CCN2CCOCC2)n1-c1ccc(F)cc1)c1ccccc1`, for which the Kinase result is given as “FYN”.
For `COc1ccc(C(=O)CSc2nnc(-c3cc4ccccc4cc3O)n2Cc2ccco2)cc1` the value was “AURORA-A”; for `O=C(CSc1nnc(-c2ccc(O)cc2)n1Cc1ccco1)c1ccccc1`, “GSK3-β and GSK3-α and MSK2”; for `C=CCn1c(SCC(=O)NCCCN2CCOCC2)nnc1-c1sc2ccccc2c1Cl`, “LYNA”.
For `C=CCn1c(CSc2nc3ccccc3s2)nnc1SCC(=O)NCCO` the value was “HCK”.
For `O=C(CSc1nnc(-c2ccc(O)cc2)n1Cc1ccccc1)c1ccccc1` the value was “GSK3-α”; for `CCn1c(SCC(=O)c2cccs2)nnc1-c1ccc(O)cc1`, “MSK1 and MSK2 and GSK3-β”.
For `CCn1c(SCC(=O)Nc2ccccc2)nnc1-c1ccc(O)cc1`, the Kinase result was “CHEK2”.
In the case of `CCn1c(SCC(=O)N(c2ccccc2)c2ccccc2)nnc1-c1ccc(O)cc1`, the Kinase entry is given as “SRC”.
For `CCn1c(SCC(=O)c2ccc(OC)cc2)nnc1-c1ccncc1` the value was “PKA and MAPKAPK-2 and MSK1”; for `COc1ccc(OC)c(C(=O)CSc2nnc(-c3ccccc3N)n2C)c1`, “PDGFRR-α”.
For `COc1ccccc1-n1c(SCC(=O)Nc2ccc3sc(C)nc3c2)nnc1-c1ccccc1O` the value was “CDK1”; for `COCCn1c(SCC(=O)N2c3ccccc3Sc3ccccc32)nnc1-c1cc2ccccc2cc1O`, “DAPK1”; for `CCn1c(SCC(=O)c2ccc(C)cc2)nnc1-c1ccc(S(=O)(=O)N2CCCCCC2)cc1`, “AURORA-A”.
For `COc1ccc(-n2c(SC(C)C(=O)Nc3ccccc3)nnc2-c2ccc(O)cc2)cc1` (stereo not drawn) the value was “GSK3-α and AKT1”; for `Cn1c(SCC(=O)c2ccccc2)nnc1-c1ccc(O)cc1`, “GSK3-β and GSK3-α and MSK1”.
Take `O=C(CSc1nnc(-c2ccc(O)cc2)n1-c1ccccc1)c1ccccc1`: the Kinase entry was “GSK3-α”.
As to `COc1ccccc1-n1c(CNc2c(C)cccc2C)nnc1SCC(=O)Nc1cccc(O)c1`, the Kinase entry is recorded as “CHEK2”.
For `CCOc1ccc(NCc2nnc(SCC(=O)NCC3CCCO3)n2-c2ccccc2OC)cc1` (stereo not drawn) the value was “FYN”; for `COc1ccc(OCc2nnc(SCC(=O)c3ccccc3)n2C)cc1`, “PAK2”.
For `O=C(CSc1nnc(CSc2nc3ccccc3s2)n1-c1ccccc1)NCCO` the value was “FYN”.
For `O=C(CSc1nnc(CSc2nc3ccccc3s2)n1-c1ccccc1)NCCN1CCOCC1` the value was “CSK”.
Consider `O=C(CSc1nnc(CSc2nc3ccccc3s2)n1-c1ccccc1)N1CCN(CCO)CC1`, for which the Kinase result was “HCK”.
In the case of `COc1ccc(C(=O)CSc2nnc(CNc3ccc(C)cc3)n2-c2ccccc2)cc1`, the Kinase entry was “CHEK2 and SYK”.
In the case of `O=C(CSc1nnc(-c2ccncc2)n1CC1CCCO1)Nc1nccs1` (stereo not drawn), the Kinase result is “GSK3-β and GSK3-α and ABL1”.
For `O=C(CSc1nnc(Cc2ccccc2)[nH]1)c1ccc2c(c1)OCCO2` the value was “GSK3-α”; for `COc1ccc(C(=O)CSc2nnc(C3CCCCC3)n2C)cc1`, “SYK”.
For `Cn1c(SCC(=O)c2ccc3c(c2)OCCO3)nnc1C1CC1` the value was “AURORA-A and FYN”.
For `CC(C)(C)c1nnc(SCC(=O)c2ccc3c(c2)OCCO3)[nH]1` the value was “DYRK2; also recorded: GSK3-α”; for `O=C(CSc1nnc(-c2cccnc2)n1-c1ccccc1)CC(=O)Nc1ccccc1`, “AURORA-A”.
In the case of `Cc1ccc(-n2c(SCC(=O)CC(=O)Nc3ccccc3)nnc2-c2cccnc2)cc1`, the Kinase entry is recorded as “AURORA-A”.
With `O=C(CSc1nnc(-c2cccnc2)n1Cc1ccccc1)CC(=O)Nc1ccccc1`, the Kinase result is “AURORA-A”.
`O=C(CSc1nnc(-c2ccc(O)cc2)n1-c1ccccc1)CC(=O)Nc1ccccc1`: the Kinase result is given as “AURORA-A; also recorded: GSK3-α”.
On to `Cc1ccc(-n2c(S)nnc2CNc2ccc(C)c(Cl)c2)cc1`, for which the Kinase entry was “GSK3-α; also recorded: AURORA-A”.
For the compound `COc1ccc(-n2c(SC(C)C(=O)Nc3c(C)cccc3C)nnc2-c2ccc(O)cc2)cc1` (stereo not drawn), the Kinase result is “AKT1”.
For `CCn1c(SCC(=O)Nc2cccc(C(C)=O)c2)nnc1-c1ccc(O)cc1` the value was “GSK3-α”.
For the compound `COc1ccc(-n2c(SCC(=O)Nc3cccc(C(C)=O)c3)nnc2-c2ccc(O)cc2)cc1`, the Kinase result is listed as “GSK3-β; also recorded: GSK3-α”.
For `CC(=O)c1cccc(NC(=O)CSc2nnc(-c3ccc(O)cc3)n2C)c1` the value was “GSK3-β; also recorded: GSK3-α; also recorded: CHEK2”; for `COc1cc(C(=O)CSc2nnc(-c3ccc(O)cc3)n2Cc2ccco2)ccc1NC(C)=O`, “GSK3-α”; for `CCC(=O)Nc1ccc(C(=O)CSc2nnc(-c3ccc(O)cc3)n2Cc2ccco2)cc1OC`, “GSK3-β; also recorded: GSK3-α”.
For `CCc1nnc(NC(=O)CSc2nnc(-c3ccc(S(=O)(=O)N4CCN(C)CC4)cc3)n2CC)s1` the value was “CHEK2”.
For `O=C(CSc1nnc(-c2ccc(O)cc2)n1-c1cccc(Cl)c1)NCc1ccccc1` the value was “GSK3-α”; for `O=C(CSc1nnc(-c2ccc([N+](=O)[O-])cc2)n1/C=C/CN1CCOCC1)N1CCOCC1`, “FYN”.
As to `COC(=O)c1ccccc1NC(=O)CSc1nnc(-c2ccc(O)cc2)n1Cc1ccco1`, the Kinase result is “GSK3-β and MSK2 and GSK3-α”.
For `COC(=O)c1ccccc1NC(=O)CSc1nnc(-c2ccc(O)cc2)n1Cc1ccccc1` the value was “AKT3 and GSK3-β and GSK3-α”; for `COC(=O)c1ccccc1NC(=O)CSc1nnc(-c2ccc(O)cc2)n1C`, “GSK3-β; also recorded: GSK3-α”.
